Assay results reported in patent publication US20160177395A1, “BIOMARKERS FOR THE PREDICTION OF RENAL INJURY” (priority 2007, published 2016).
“And” between values parts separate entries of the source, which are not always exact repeats. Equal values may be shown once.

Tested on: kidney tissues of treated or untreated rats
Assay: Real-time qRT-PCR of marker transcripts in kidney tissue panel, discovery stage (Table 22)
Assay type: in vivo, rat
Design: AI502869_DB71_seg0 normalized Real Time PCR expression: unit not given beside the values
Conditions: rat kidney, listed as Cis
Procedure: Before RT preparation the RNA was treated with DNA-free (Ambion, cat. No. AM1906) DNase treatment and removal—according to manufacturer protocol. DNase procedure was repeated until no DNA is detected in a PCR reaction using the RNA samples.
The mixture is then incubated for 5 min at 65° C. and then quickly chilled on ice. Thereafter, 20 μl of 5× SuperscriptII first strand buffer (Invitrogen, Cat. No. Y00146), 9.6 μl 0.1M DTT (Invitrogen, Cat. No. Y00147) and 160 units RNasin (Promega, Cat. No. N251A) are added, and the mixture is incubated for 10 min at 25° C., followed by further incubation at 42° C. for 2 min. […] The resulting cDNA is diluted 1:20 in TE buffer (10 mM Tris pH=8, 1 mM EDTA pH=8).
cDNA (5 μl), prepared as described above, is used as a template in Real-Time PCR reactions using the SYBR Green I assay (PE Applied Biosystem) with specific primers in 100 nM concentration if not indicated otherwise and UNG Enzyme (Eurogentech or equal) Amplification is effected as follows: 50° C. for 2 min, 95° C. for 10 min, and then 40 cycles of 95° C. for 15 sec, followed by 60° C. for 1 min (if not indicated otherwise). Amplification step is followed by dissociation step. Detection is performed by using the PE Applied Biosystem SDS 7000. The cycle in which the reactions achieved a threshold level (Ct) of fluorescence is registered and is used to calculate the relative transcript quantity in the RT reactions. Non-detected samples are assigned Ct value of 41 and are calculated accordingly. The relative quantity is calculated using the equation Q=efficiencŷ-Ct. The efficiency of the PCR reaction is calculated from a standard curve, created by using serial dilutions of several reverse transcription (RT) reactions. To minimize inherent differences in the RT reaction, the resulting relative quantities are normalized to normalization factor calculated as follows: […]
The relative quantity (Q) of each housekeeping gene in each sample is calculated as described above. In order to calculate the “relative Q relative to MED” each Q for each HSKP gene is divided by the median quantity of this gene in all panel samples. To finally achieve the normalization factor of each sample the geometric mean of all four “relative Q relative to MED” was calculated. The normalization factor was then used for further calculations.
The markers of the present invention were tested with regard to their expression in a panel of kidney tissues samples from treated and control rats. Unless otherwise noted, all experimental data relates to the novel polynucleotides and proteins of the present invention, named according to the segment being tested (as expression was tested through RT-PCR as described). Tests were then performed as described in the “Materials and Experimental Procedures” section above.
The qRT-PCR measurements were normalized according to each samples normalization factor as described in “RT Preparation and Real-Time qRT-PCR Analysis” and further multiplied by a constant factor for ease of viewing.

[1] = day5, individual animals (F and M)
[2] = day28, individual animals (F and M)

N.N.[Cl][Pt][Cl] [Cisplatin]
AW919147_DB71_seg0 normalized Real Time PCR expression (day1, individual animals): 0.8 and 1.09 and 0.87 (2×) and 0.88
BI293562_DB71_seg2 normalized Real Time PCR expression (day1, individual animals): 0.74 and 0.5 and 0.38 and 0.7 and 0.39 and 0.71
H31045_DB71_seg5 normalized Real Time PCR expression (day1, individual animals): 0.24 and 0.28 and 0.22 and 0.82 and 0.21 and 1.22
H31799_DB71_seg23 normalized Real Time PCR expression (day1, individual animals): 1.03 and 1.09 and 1.22
H31883_DB71_seg13 normalized Real Time PCR expression (day1, individual animals): 2.03 and 0.74 and 0.71 and 1.52
H33998_DB71_seg19 normalized Real Time PCR [1]: 1.79 and 1.84 and 1.95 and 1.49 and 0.46 and 2.14
MUSCYCG1R_DB81_seg15-17 normalized Real Time PCR [1]: 3.12 and 3.59 and 2.07 and 2.31 and 0.92 and 2.34
RATLRFI_DB71_seg9 normalized Real Time PCR [1]: 0.79 and 0.44 and 0.32 and 0.65 and 0.34 and 1.97
RATRAB13X_DB71_seg11-13 normalized Real Time PCR [1]: 1.01 and 1.02 and 0.74
RNU24174_DB71_seg8 normalized Real Time PCR [1]: 0.97 and 0.7 and 0.6 and 1.3 and 0.31 and 3.6
W41270_DB81_seg11 normalized Real Time PCR [1]: 1.97 and 1.9 and 1.79 and 1.51 and 3.12
W64472_DB81_seg2 normalized Real Time PCR [1]: 2.23 and 2.1 and 1.99 and 2.64 and 0.95 and 4.55
W83813_DB81_seg27 normalized Real Time PCR [1]: 2.12 (2×) and 2.25 and 1.39 and 0.94 and 1.41
AA686189_DB71_seg6 normalized Real Time PCR expression (day5, individual animals): 0.93 and 0.76 and 1.5 and 0.69 and 4.48
AA799594_DB71_seg0 normalized Real Time PCR expression (day5, individual animals): 1.34 and 1.11 and 0.93 and 0.71 and 0.75
AA964541_DB71_seg0 normalized Real Time PCR expression (day5, individual animals): 0.99 and 0.74 and 0.76 and 1.94 and 0.67 and 4.8
AI045075_DB71_seg6 normalized Real Time PCR expression (day5, individual animals): 0.86 and 0.53 and 0.76 and 1.93 and 0.81 and 1.33
AI454051_DB71_seg0 normalized Real Time PCR expression (day5, individual animals): 1.43 and 1.39 and 0.92 and 0.86
AI502869_DB71_seg0 normalized Real Time PCR expression (day5, individual animals): 0.8 and 0.93 and 0.74 and 0.52 and 0.61
AW919147_DB71_seg0 normalized Real Time PCR expression (day5, individual animals): 1.39 and 0.83 and 0.8 and 0.88
BI293562_DB71_seg2 normalized Real Time PCR expression (day5, individual animals): 0.74 and 0.67 and 0.7 and 3.45 and 0.81 and 1.76
H31045_DB71_seg5 normalized Real Time PCR expression (day5, individual animals): 1.8 and 0.34 and 0.51 and 3.25 and 0.23 and 1.66
H31799_DB71_seg23 normalized Real Time PCR expression (day5, individual animals): 1.1 and 0.74 and 1.23 and 0.92
H31883_DB71_seg13 normalized Real Time PCR expression (day5, individual animals): 1.44 and 1.2 and 1.73 and 1.3 and 2.43
H33998_DB71_seg19 normalized Real Time PCR [2]: 0.55 and 0.69 and 0.85 and 0.61 and 0.62 and 0.41
MUSCYCG1R_DB81_seg15-17 normalized Real Time PCR [2]: 1.96 and 2.57 and 2.7 and 2.09 and 2.31 and 1.93
RATLRFI_DB71_seg9 normalized Real Time PCR [2]: 2.33 and 3.05 and 3.8 and 3.03 and 2.4 and 2.26
RATRAB13X_DB71_seg11-13 normalized Real Time PCR [2]: 1.62 and 1.78 and 1.57 and 1.24 and 1.31
RNU24174_DB71_seg8 normalized Real Time PCR [2]: 8.38 and 12.63 and 12.14 and 10.21 and 7.3 and 8.08
W41270_DB81_seg11 normalized Real Time PCR [2]: 1.45 (2×) and 1.8 and 1.48 and 1.94 and 1.11
W64472_DB81_seg2 normalized Real Time PCR [2]: 1.81 and 3.16 and 2.87 and 2.8 and 3.04 and 1.65
W83813_DB81_seg27 normalized Real Time PCR [2]: 0.71 and 0.7 and 0.78 and 0.51 (2×) and 0.57
AA686189_DB71_seg6 normalized Real Time PCR expression (day28, individual animals): 0 and 3.57 and 6.06 and 3.15 and 4.29 and 3.86
AA799594_DB71_seg0 normalized Real Time PCR expression (day28, individual animals): 0.74 and 0.64 and 0.52 and 0.36 and 0.97 and 0.62
AA964541_DB71_seg0 normalized Real Time PCR expression (day28, individual animals): 2.63 and 5.28 and 6.85 and 3.72 and 4.71 and 3.97
AI045075_DB71_seg6 normalized Real Time PCR expression (day28, individual animals): 2.17 and 3.09 and 3.37 and 3.18 and 2.72 and 1.57
AI454051_DB71_seg0 normalized Real Time PCR expression (day28, individual animals): 0.68 and 0.8 and 0.87 and 0.73 and 0.82 and 0.78
AI502869_DB71_seg0 normalized Real Time PCR expression (day28, individual animals): 1.03 (2×) and 0.74 and 1.35 and 0.95
AW919147_DB71_seg0 normalized Real Time PCR expression (day28, individual animals): 0.54 (2×) and 0.72 and 0.66 and 0.84
BI293562_DB71_seg2 normalized Real Time PCR expression (day28, individual animals): 5.98 and 12.27 and 8.01 and 6.24 and 2.93 and 3.33
H31045_DB71_seg5 normalized Real Time PCR expression (day28, individual animals): 0.73 (2×) and 0.81 and 0.88 and 2.92 and 2.96
H31799_DB71_seg23 normalized Real Time PCR expression (day28, individual animals): 1.15 and 0.98 and 0.88 and 0.9
H31883_DB71_seg13 normalized Real Time PCR expression (day28, individual animals): 2.72 and 4.07 and 3.83 and 2.41 and 3.37 and 2.23
